Measured values from patent US9441023B2, “Peptide YY analogs” (GlaxoSmithKline Intellectual Property Development Limited, priority 2013, dated 2016).
Where no end group is shown, it is not given here.

assay: cumulative food intake, lean mice (Model A), BioDaQ system; format: in vivo; settings: Table 1; lean male C57BL/6 mice, 1 mg/kg s.c., cumulative food intake after 6 h, relative to vehicle; negative = reduction
Protocol: Cumulative food intake after 6 h was determined for the PYY analogs in either lean (Model A) or diet-induced obese (DIO) (Model B) C57BL/6 mice in a BioDaQ system for continuous monitoring of food intake (Research Diets Inc., New Brunswick, N.J.). […] Mice were placed singly into the BioDaQ cages and acclimatized for a minimum of 6 days and were allowed ad libitum access to food and water. Approximately 1 hour prior to lights-out, animals were dosed subcutaneously with either vehicle (20 mM Acetate buffer, pH 4.9 or 20% DMSO in water) or analogs dissolved in vehicle (1 mg/kg) (8 animals per group). Once all animals have been dosed, feeder gates were opened providing ad-libitum access to food. Continuous food intake was monitored and collected for 15 hours. […] P-values <0.05 were considered to indicate a significant difference between treatment groups.

Row | Molecule | % reduction in food intake, model A [%]
1 | CC(C)C[C@H](NC(=O)[C@H](CO)NC(=O)[C@H](C)NC(=O)[C@H](Cc1ccc(O)cc1)NC(=O)[C@H](Cc1ccc(O)cc1)NC(=O)[C@H](CCCNC(=N)N)NC(=O)[C@H](CC(N)=O)NC(=O)[C@H](Cc1c[nH]c2ccccc12)NC(=O)[C@H](CCC(=O)O)NC(=O)[C@H](CCC(=O)O)NC(=O)[C@@H]1CCCN1C(=O)[C@H](CO)NC(=O)[C@H](C)NC(=O)[C@H](CC(=O)O)NC(=O)[C@H](CCCCN)NC(=O)CNC(=O)[C@@H]1CCCN1C(=O)[C@H](C)NC(=O)[C@H](CCC(=O)O)NC(=O)[C@@H]1CCCN1C(=O)[C@H](CCCCN)NC(=O)[C@@H]1CCCN1)C(=O)N[C@@H](CCCNC(=N)N)C(=O)N[C@@H](CCCCN)C(=O)N[C@@H](Cc1ccc(O)cc1)C(=O)N[C@@H](CC(C)C)C(=O)N[C@@H](CC(N)=O)C(=O)N[C@@H](Cc1c[nH]c2ccccc12)C(=O)N[C@H](C(=O)N[C@H](C(=O)N[C@@H](CCCNC(=N)N)C(=O)N[C@@H](CCC(N)=O)C(=O)N[C@@H](CCCNC(=N)N)C(=O)N[C@@H](Cc1ccc(O)cc1)C(N)=O)[C@@H](C)O)C(C)C [Example 10] | −88
2 | CC(C)C[C@H](NC(=O)[C@H](CC(=O)O)NC(=O)[C@H](C)NC(=O)[C@H](Cc1ccc(O)cc1)NC(=O)[C@H](Cc1ccc(O)cc1)NC(=O)[C@H](CCCNC(=N)N)NC(=O)[C@H](CC(N)=O)NC(=O)[C@H](Cc1c[nH]c2ccccc12)NC(=O)[C@H](CCC(=O)O)NC(=O)[C@H](CCC(=O)O)NC(=O)[C@@H]1CCCN1C(=O)[C@H](CO)NC(=O)[C@H](C)NC(=O)[C@H](CC(=O)O)NC(=O)[C@H](CCCCN)NC(=O)CNC(=O)[C@@H]1CCCN1C(=O)[C@H](C)NC(=O)[C@H](CCC(=O)O)NC(=O)[C@@H]1CCCN1C(=O)[C@H](CCCCN)NC(=O)[C@@H]1CCCN1)C(=O)N[C@@H](CCCNC(=N)N)C(=O)N[C@@H](CCCCN)C(=O)N[C@@H](Cc1ccc(O)cc1)C(=O)N[C@@H](CC(C)C)C(=O)N[C@@H](CC(N)=O)C(=O)N[C@@H](Cc1c[nH]c2ccccc12)C(=O)N[C@H](C(=O)N[C@H](C(=O)N[C@@H](CCCNC(=N)N)C(=O)N[C@@H](CCC(N)=O)C(=O)N[C@@H](CCCNC(=N)N)C(=O)N[C@@H](Cc1ccc(O)cc1)C(N)=O)[C@@H](C)O)C(C)C [Example 8] | −74
3 | CC(C)C[C@H](NC(=O)[C@H](CO)NC(=O)[C@H](C)NC(=O)[C@H](Cc1ccc(O)cc1)NC(=O)[C@H](Cc1ccc(O)cc1)NC(=O)[C@H](CCCNC(=N)N)NC(=O)[C@H](CC(N)=O)NC(=O)[C@H](Cc1c[nH]c2ccccc12)NC(=O)[C@H](CCC(=O)O)NC(=O)[C@H](CCC(=O)O)NC(=O)[C@@H]1CCCN1C(=O)[C@H](CO)NC(=O)[C@H](C)NC(=O)[C@H](CC(=O)O)NC(=O)[C@H](CCCCN)NC(=O)CNC(=O)[C@@H]1CCCN1C(=O)[C@H](C)NC(=O)[C@H](CCC(=O)O)NC(=O)[C@@H]1CCCN1C(=O)[C@H](CCCCN)NC(=O)[C@@H]1CCCN1)C(=O)N[C@@H](CCCNC(=N)N)C(=O)N[C@@H](CCCCN)C(=O)N[C@@H](Cc1ccc(O)cc1)C(=O)N[C@@H](CC(C)C)C(=O)N[C@@H](CC(N)=O)C(=O)N[C@@H](Cc1c[nH]c2ccccc12)C(=O)N[C@@H](CC(C)C)C(=O)N[C@H](C(=O)N[C@@H](CCCNC(=N)N)C(=O)N[C@@H](CCC(N)=O)C(=O)N[C@@H](CCCNC(=N)N)C(=O)N[C@@H](Cc1ccc(O)cc1)C(N)=O)[C@@H](C)O [Example 6] | −88
4 | CC(C)C[C@H](NC(=O)[C@H](CO)NC(=O)[C@H](C)NC(=O)[C@H](Cc1ccc(O)cc1)NC(=O)[C@H](Cc1ccc(O)cc1)NC(=O)[C@H](CCCNC(=N)N)NC(=O)[C@H](CC(N)=O)NC(=O)[C@H](CC(C)C)NC(=O)[C@H](CCC(=O)O)NC(=O)[C@H](CCC(=O)O)NC(=O)[C@@H]1CCCN1C(=O)[C@H](CO)NC(=O)[C@H](C)NC(=O)[C@H](CC(=O)O)NC(=O)[C@H](CCCCN)NC(=O)CNC(=O)[C@@H]1CCCN1C(=O)[C@H](C)NC(=O)[C@H](CCC(=O)O)NC(=O)[C@@H]1CCCN1C(=O)[C@H](CCCCN)NC(=O)[C@@H]1CCCN1)C(=O)N[C@@H](CCCNC(=N)N)C(=O)N[C@@H](CCCCN)C(=O)N[C@@H](Cc1ccc(O)cc1)C(=O)N[C@@H](CC(C)C)C(=O)N[C@@H](CC(N)=O)C(=O)N[C@@H](Cc1c[nH]c2ccccc12)C(=O)N[C@H](C(=O)N[C@H](C(=O)N[C@@H](CCCNC(=N)N)C(=O)N[C@@H](CCC(N)=O)C(=O)N[C@@H](CCCNC(=N)N)C(=O)N[C@@H](Cc1ccc(O)cc1)C(N)=O)[C@@H](C)O)C(C)C [Example 31] | −59

same assay, conditions: Table 2; lean male C57BL/6 mice, 1 mg/kg s.c., 6 h time point, relative to vehicle; negative = reduction

Row | Molecule | % reduction in food intake, model A [%]
5 | H-PKPEAPGEDASPKEWNRYYASLRKYLNWVTRQRY-NH2 [Peptide 3] | −30
6 | PKPVAPGCDASPAELNRQYSDLRNYWNLVTRQRY-NH2 [Peptide 15] | −17
7 | H-PEPEHPGCDASPEDQNKYHASLRKYLNWVTRQRY-NH2 [Peptide 10] | −21
8 | H-PQPESPEGNASPEDWACYHAAVRHYVNLITRQRY-NH2 [Peptide 18] | −17
9 | H-IKPEAPLSKQLEEEAVRYYASLRHYLNLVTRQRY-NH2 [Peptide 2] | −12
10 | PKPEAPLSKQLEEEAVRYYASLRHYLNLVTRQRY-NH2 [Peptide 21] | −2
11 | H-PKPEAPGCDASPEEWNRYYASLRKYLNWVTRQNY-NH2 [Peptide 1] | 5
12 | CC[C@H](C)[C@H](N)C(=O)N[C@@H](CCCCN)C(=O)N1CCC[C@H]1C(=O)N1CCC[C@H]1C(=O)N[C@@H](Cc1ccc(O)cc1)C(=O)N1CCC[C@H]1C(=O)NCC(=O)N[C@@H](CS)C(=O)N[C@@H](CC(=O)O)C(=O)N[C@@H](C)C(=O)N[C@@H](CO)C(=O)N1CCC[C@H]1C(=O)N[C@@H](CCC(=O)O)C(=O)N[C@@H](CCC(=O)O)C(=O)N[C@@H](CCC(N)=O)C(=O)N[C@@H](CC(N)=O)C(=O)N[C@@H](CCCCN)C(=O)N[C@@H](Cc1ccc(O)cc1)C(=O)N[C@@H](Cc1ccc(O)cc1)C(=O)N[C@@H](C)C(=O)N[C@@H](CO)C(=O)N[C@@H](CC(C)C)C(=O)N[C@@H](CCCNC(=N)N)C(=O)N[C@@H](C)C(=O)N[C@@H](Cc1ccc(O)cc1)C(=O)N[C@@H](Cc1c[nH]c2ccccc12)C(=O)N[C@@H](CC(N)=O)C(=O)N[C@@H](CC(C)C)C(=O)N[C@H](C(=O)N[C@H](C(=O)N[C@@H](CCCNC(=N)N)C(=O)N[C@@H](CCC(N)=O)C(=O)N[C@@H](CCCNC(=N)N)C(=O)N[C@@H](Cc1ccc(O)cc1)C(N)=O)[C@@H](C)O)C(C)C [Peptide 8] | −19
13 | H-PKPEAPGCDASPEEWNRYYASLRKYLNWVTRQHY-NH2 [Peptide 14] | 24
